# Patent publication US20130178472A1, “ARYLSULFONAMIDE PYRIDINE-PYRIDINONE DERIVATIVES, PREPARATION OF SAME, AND THERAPEUTIC USE THEREOF” (SANOFI, priority 2010, published 2013)
# pIC50: −log10 of the molar value.
# Tests used:
# [1] = molecular target: T1, active mutant recombinant S6K1 (1-421, T412E) (Homo sapiens, UniProt P23443, T412E); assay: Inhibition of p70S6 kinase activity: phosphorylation of S6 peptide substrate, [γ-33]ATP filter assay; assay type: biochemical; settings: peptide AKRRRLSSLRA 50 μM, ATP 100 μM, 20 minutes at 30° C.; read-out: IC50, concentration which inhibits 50% of the phosphorylation of the peptide substrate derived from the S6 ribosomal protein
# T1 construct: S6K1 (1-421, T412E); purchased Upstate USA, Inc. Charlottesville Va; 14-333
# From the text: (§1) The inhibitory activity on the PDGF receptor kinases is given by the concentration which inhibits 50% of the proliferation activity of Baf3 tel/PDGF cells respectively. The inhibitory activity on p70S6 kinase is given by the concentration which inhibits 50% of the phosphorylation of the peptide substrate derived from the S6 ribosomal protein (AKRRRLSSLRA, Upstate).
# Measurement of the inhibition of the p70S6 kinase activity:
# The active mutant recombinant S6K1 (1-421, T412E) (ref. 14-333, Upstate USA, Inc. Charlottesville Va.) (specific activity 298 U/mg) is incubated (20 mU/10 μl) with 8 concentrations of inhibitors solubilized at 1 mM in DMSO in the presence of the peptide substrate obtained from the S6 ribosomal protein (AKRRRLSSLRA, Upstate) (50 μM final) and of a cold ATP mixture (100 μM) and 1 μCi/well of [γ-33]ATP (NEN, Courtaboeuf, France). The enzyme reaction is carried out in a final volume of 50 μl in a 96-well filter plate (MultiScreen TM-PH opaque plate with Phospho-Cellulose cat # MAPHNOB, Millipore) previously soaked with 100 μl 1M Tris buffer pH 7.4 by adding the reagents of the S6 Kinase Assay kit (#17-136, Upstate) in the following order:
# 10 μl of 5% DMSO or various inhibitors at a 5× concentration
# 30 μl of reaction mixture containing the ADBI buffer (#20-108 Upstate, composed of 20 mM MOPS pH 7.2, 25 mM beta-glycerol phosphate, 5 mM EGTA, 1 mM sodium orthovanadate, 1 mM dithiothreitol), S6K1 (20 mU) and 250 μM peptide substrate [AKRRRLSSLRA] in ADBI buffer (#20-122, Upstate). The reaction is started by adding 10 μl of cold ATP/^33γATP mixture (1 μCi/50 μl as 500 μM ATP in ADBI buffer, 75 mM MgCl2) and then incubated for 20 minutes at 30° C. before being stopped by adding 20 μl of 7.5% phosphoric acid. The reaction mixture is filtered by aspiration under vacuum (Vacuum manifold, Millipore), the wells are rinsed twice with 200 μl of 7.5% phosphoric acid (2 minutes) and then twice with 200 μl of distilled H2O (2 minutes). After drying the plate, 25 μl/well of scintillant (Optiphase Super Mix, Wallac) are added and the radioactivity is detected with the Micro-Beta scintillation reader (Wallac). A negative control (all the reagents without peptide substrate) is prepared in order to determine the nonspecific binding of ^33γATP to the phosphocellulose filter which is subtracted from the experimental results.
# It is thus apparent that the compounds of the invention have an inhibitory activity on the p70S6 kinase activity. This activity is given by the concentration which inhibits 50% of the phosphorylation of the peptide substrate derived from the S6 ribosomal protein (AKRRRLSSLRA, Upstate).
# [2] = molecular target: T2, fusion protein Tel/PDGF-R beta (BaF3 Tel/PDGF cells) (Homo sapiens, UniProt P09619); assay: Inhibition of PDGF beta receptor tyrosine kinase activity: proliferation of BaF3 Tel/PDGF cells; assay type: cell-based, murine; settings: 72 h incubation, viable cells by cellular ATP (CellTiter-Glo); read-out: IC50, concentration which inhibits 50% of the proliferation of the Baf3 tel/PDGF cells
# T2 construct: the transmembrane and intracellular part of the PDGF-R beta receptor; N-terminal part of transcription factor Tel (ETV6, own knowledge: UniProt P41212), containing the oligomerization domain; expressed in transfected cells; host or cells: murine hematopoietic cell line BaF/3 (BaF3 Tel/PDGF); the other entry of the earlier key: ETV6 (P41212, Transcription factor ETV6)
# From the text: as §1
# Measurement of the inhibition of the PDGF beta receptor (PDGF-Rβ) tyrosine kinase activity (Baf-3 tel/PDGFRβ):
# This test consists in evaluating the effects of the compounds on the PDGF beta receptor tyrosine kinase activity.
# The inhibitory effect of the compounds according to the invention toward the PDGF-R receptor tyrosine kinase activity was evaluated on the hematopoietic murine cell line BaF/3 transfected with a plasmid encoding the fusion protein Tel/PDGF-R beta. This fusion protein is found in chronic myelomonocytic myeloid leukemias (CMML). It comprises the N-terminal part of the transcription factor Tel and the transmembrane and intracellular part of the PDGF-R beta receptor. This fusion protein is present in dimerized form (presence of an oligomerization domain in the N-terminal part of Tel) and therefore leads to the constitutive activity of the PDGF-R beta kinase domain. This BaF3 Tel/PDGF line has been described in the literature several times and in particular in detail in the article by CARROLL, M. et al., PNAS, 1996, 93, 14845-14850, CARROLL, M. et al., Blood 2002, 99, 14845-14850.
# The BaF3 Tel/PDGF cells are washed with phosphate buffer and inoculated in 96-well plates, at the density of 5×10^4 cells/ml ([…]), in RPMI 1640 containing 10% FCS, in the presence or absence of the compounds to be tested. After 72 h of incubation, the viable cells are quantified by measuring the cellular ATP using the kit CellTiter-Glo®(Promega, Cat G7571). The cells are treated according to the instructions given by the kit supplier and the luminescence is measured with the aid of a Luminoskan (Ascent, Labsystem) with the following parameters: measurement: single; integration time: 1000 ms, lag time: 5 s.
# It is thus apparent that the compounds according to the invention have an inhibitory activity on the PDGF-R beta tyrosine kinase activity. This activity is given by the concentration which inhibits 50% of the proliferation of the Baf3 tel/PDGF cells (IC50).
# T1 sequence (P23443 1-421 T412E): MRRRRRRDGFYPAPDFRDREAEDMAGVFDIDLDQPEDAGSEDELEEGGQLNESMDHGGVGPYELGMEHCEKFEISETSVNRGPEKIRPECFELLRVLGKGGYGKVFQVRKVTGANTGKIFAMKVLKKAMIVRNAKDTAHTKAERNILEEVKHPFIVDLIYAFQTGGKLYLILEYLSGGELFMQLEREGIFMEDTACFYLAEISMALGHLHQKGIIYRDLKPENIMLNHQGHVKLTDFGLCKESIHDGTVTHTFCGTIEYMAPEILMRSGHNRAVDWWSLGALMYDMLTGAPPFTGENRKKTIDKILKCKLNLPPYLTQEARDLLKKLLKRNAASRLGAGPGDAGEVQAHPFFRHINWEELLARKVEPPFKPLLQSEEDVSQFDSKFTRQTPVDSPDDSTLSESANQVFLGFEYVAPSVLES
# T2 sequence (P09619 with tags, fused parts or gaps): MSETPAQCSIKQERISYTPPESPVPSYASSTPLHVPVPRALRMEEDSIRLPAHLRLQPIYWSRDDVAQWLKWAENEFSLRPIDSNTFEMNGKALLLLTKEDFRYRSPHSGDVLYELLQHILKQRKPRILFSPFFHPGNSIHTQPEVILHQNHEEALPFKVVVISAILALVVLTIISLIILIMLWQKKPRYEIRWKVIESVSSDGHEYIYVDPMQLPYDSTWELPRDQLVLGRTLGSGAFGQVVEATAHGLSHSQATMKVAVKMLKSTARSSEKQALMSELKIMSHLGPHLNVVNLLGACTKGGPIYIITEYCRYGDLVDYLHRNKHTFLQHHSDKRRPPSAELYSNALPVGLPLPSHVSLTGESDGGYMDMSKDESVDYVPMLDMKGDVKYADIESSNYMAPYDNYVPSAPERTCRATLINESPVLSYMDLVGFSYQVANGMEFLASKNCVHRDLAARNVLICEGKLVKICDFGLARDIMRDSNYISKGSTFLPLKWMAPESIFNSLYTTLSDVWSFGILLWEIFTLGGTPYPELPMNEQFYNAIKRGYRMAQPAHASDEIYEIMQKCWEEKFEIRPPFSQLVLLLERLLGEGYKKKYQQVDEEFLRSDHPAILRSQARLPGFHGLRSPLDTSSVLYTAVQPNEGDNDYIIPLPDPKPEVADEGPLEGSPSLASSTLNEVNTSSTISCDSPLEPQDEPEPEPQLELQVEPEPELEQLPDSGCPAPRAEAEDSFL
pIC50 [1],melting point [°C],Structure (SMILES),pIC50 [2]
6.65,340,"CCn1c(N)c(C(=O)NC)c(=O)c2ccc(-c3ccc(NS(=O)(=O)c4cccc(Cl)c4Cl)cc3F)nc21 [compound No. 14, 2-amino-7-(4-{[(2,3-dichlorophenyl)sulfonyl]amino}-2-fluorophenyl)-1-ethyl-N-methyl-4-oxo-1,4-dihydro-1,8-naphthyridine-3-carboxamide]",
6.88,333,"CCn1c(N)c(C(=O)NC)c(=O)c2ccc(-c3ccc(NS(=O)(=O)c4cccc(Cl)c4Cl)c(F)c3)nc21 [compound No. 18, 2-amino-7-(4-{[(2,3-dichlorophenyl)sulfonyl]amino}-3-fluorophenyl)-1-ethyl-N-methyl-4-oxo-1,4-dihydro-1,8-naphthyridine-3-carboxamide]",7.92
6.62,230,"CCn1c(N)c(C(=O)NC)c(=O)c2ccc(-c3ccc(NS(=O)(=O)c4cc(Cl)ccc4Cl)c(F)c3)nc21 [compound No. 9, 2-amino-7-(4-{[(2,5-dichlorophenyl)sulfonyl]amino}-3-fluorophenyl)-1-ethyl-N-methyl-4-oxo-1,4-dihydro-1,8-naphthyridine-3-carboxamide]",
6.39,311,"CCn1c(N)c(C(=O)NC)c(=O)c2ccc(-c3ccc(NS(=O)(=O)c4cccc(Cl)c4Cl)c(Cl)c3)nc21 [compound No. 8, 2-amino-7-(3-chloro-4-{[(2,3-dichlorophenyl)sulfonyl]amino}phenyl)-1-ethyl-N-methyl-4-oxo-1,4-dihydro-1,8-naphthyridine-3-carboxamide]",
